Entries after “also recorded” stand apart in the source; their conditions may differ.

Series [1] relates to inflammatory nociception (acetic acid-induced abdominal writhes) in C57BL/6 mice. As to the kind of experiment: Abdominal writhing test (acetic acid-induced writhes). The format is in vivo. The settings on record: mouse; for efficacy in abdominal writhing (racemate, diastereoisomers, CBC vs vehicle): one-way ANOVA post-hoc Bonferroni, FIG. 4A. The protocol:
(§1) CBC and CBC-val-HS were dissolved in a solution of 10% ethanol/10% cremophore and 80% saline. Mice received IP injection of test compounds in a volume of 1.0 ml/kg for the abdominal writhing assay and 1.0 ml/kg, IP in the hot plate assay. For pharmacokinetic studies, drug was given in a volume of 1.0 ml/kg for tail vein and oral gavage administration. CBC-val-HS doses were calculated to be the dose equivalent of CBC.
(§2) All experimental procedures were approved by the University of Mississippi Institutional Animal Care and Use Committee (Protocol #19-009). Animal studies reported in compliance with the ARRIVE guidelines. Male wild-type C57BL/6 mice (7-10 weeks, 17-30 grams) were used for all behavioral studies and Male CD-1 (6-7 weeks, 20-25 grams) were used for all pharmacokinetic studies. Mice were purchased from Envigo, (Indianapolis, IN, USA) and acclimated for one week prior to experimentation. Mice were group-housed (n=4-5) in a polycarbonate tub with soft bedding in a temperature (22°±2) and humidity-controlled vivarium under a normal 12:12 h light/dark cycle (lights on at 06:00) with food and water ad libitum. Behavioral testing was performed during the hours of 08:00-18:00 with 30-minute acclimation to the testing room for all studies. Mice were assigned treatments through random block assignment per cage and experimenters were blinded to treatment conditions. Equipment was thoroughly sanitized with 70% ethanol between mice.
Abdominal writhing testing was used to quantify inflammatory nociception. Testing was conducted in clear, open-top, acrylic observation chambers (12.7×15.24 cm) located on a smooth surface. Test compounds were administered IP 30 minutes prior to behavioral testing. For testing, mice were then given an IP injection of 0.7% acetic acid in a volume of 10.0 ml/1 kg and immediately placed in an observation chamber for 30-minute test. The number of abdominal writhes served as the dependent measure.

A short description of series [2]: Pharmacokinetic study, plasma levels by LC-MS-MS. The format is in vivo, mouse. How it is done:
as §1, §2
A pharmacokinetic study of CBC and CBC-val-HS was conducted using either intraperitoneal (IP), oral gavage, or and intravenous (IV; lateral tail vein) administration routes. For each route, four to five subjects were sacrificed at 0, 0.05, 0.25, 0.5, 1, 2, 4, 8, and 24 hr after drug administration. Mice were anesthetized with isoflurane, and whole blood was collected by cardiac puncture. Plasma was isolated by centrifugation (2000 rpm, 5 min) and stored at −80° C. until assayed.
For CBC in the plasma samples were extracted using solid phase cartridges. CBC-VHS plasma samples were diluted with cold acetonitrile, sonicated, centrifuged, transferred supernatant to another extraction tube, evaporated the solvent and reconstituted with acetonitrile for the analysis. The LC-MS-MS system consists of a Shimadzu Prominence UHPLC with a dual pump, a vacuum solvent micro-degasser, a controlled-temperature auto-sampler, and an MS-MS detector (Applied Biosystems/MSD Sciex QTRAP 4500/3200 with a turbo-ion ESI source operating the positive-ion multiple reaction monitoring, or MRM, mode). […] Deuterated internal standard D3-CBC was used for the quantitation of CBC and CBCVHS. The peak area corresponding to each extracted MRM was measured and correlated to a multiple point calibration curve to determine the plasma concentration of each analyte. […]

The subject of series [3] is thermal nociception in C57BL/6 mice. As to the kind of experiment: Hot plate test (thermal nociception, 52° C.). The format is in vivo. The conditions noted are these: mouse, IP 30 minutes prior; FIG. 4B. The protocol:
as §1
as §2, with “Mice were assigned treatments through random block assignment per cage and experimenters were blinded to treatment conditions. Equipment was thoroughly sanitized with 70% ethanol between mice.” left out
The hot plate (Harvard Instruments, Model #52-8570) was used to quantify thermal nociception. […]

In a further series the test system is paw edema. The settings on record: restricted to high doses of over 100 mg/kg; cited from earlier work.
The subject of another series is intestinal inflammation. The conditions noted are these: far lower doses; cited from earlier work.
The next series relates to nociception. The conditions noted are these: effect was time-dependent; cited from earlier work.
The conditions of series [4]: after parenteral administration; cited from earlier work.

With `CCCCCc1cc(OC(=O)C(NC(=O)CCC(=O)O)C(C)C)c2c(c1)OC(C)(CCC=C(C)C)C=C2` (racemic) [CBC-Val-HS, cannabichromene-valinate-hemisuccinate], the “number of acid-induced abdominal writhes” value in series [1] (increasing doses, IP 30 minutes prior to acetic acid injection, FIG. 2) is “significantly decreased”. Further, in series [1] (IP, two-way ANOVA, drug factor F=1.62, p=0.38), the “overall efficacy or potency in comparison to CBC, abdominal writhing” value is recorded as “No differences in overall efficacy or potency; also recorded: equally efficacious”. In addition, the “efficacy in abdominal writhing (racemate, diastereoisomers, CBC vs vehicle)” value in series [1] was “as effective as CBC”. Further, the “peak concentration relative to peak concentration of CBC at the same dose equivalent” value in series [2] (intravenous administration, in the hour following administration, FIG. 3A) is “greater than 10 × higher”. Moreover, the “chemical entity detected in circulating plasma” value in series [2] (parenteral or oral administration to animals) is given as “the major chemical component detected in the circulating plasma is the intact CBC-Val-HS; also recorded: a majority of CBC-Val-HS remained intact in circulation”. In series [2] (plasma after administration), the “fraction observed in the plasma as intact CBC-Val-HS” value is given as “two-thirds” and the “fraction of the derivative observed in the plasma as free CBC” value is reported as “about one-third”. Moreover, the “latency to hotplate withdrawal (anti-nociception against thermal pain)” value in series [3] is “displayed anti-nociceptive potential”.
On to `CCCCCc1cc(O)c2c(c1)OC(C)(CCC=C(C)C)C=C2` (centres unmarked) [CBC, Cannabichromene], for which, in the series with paw edema, the “anti-inflammatory / anti-edematous properties in vivo” value was “mild anti-inflammatory, or anti-edematous properties”. The “efficacy in abdominal writhing (racemate, diastereoisomers, CBC vs vehicle)” value in series [1] is given as “effective”. The “activity against intestinal inflammation in vivo” value in the series on intestinal inflammation was “protective activity”. In the series with nociception, the “anti-nociceptive effect in tail-flick” value is reported as “biphasic anti-nociceptive effects”.
`C=C(C)C1CCC(C)=CC1c1c(OC(=O)[C@@H](NC(=O)CCC(=O)O)C(C)C)cc(CCCCC)cc1OC(=O)[C@@H](NC(=O)CCC(=O)O)C(C)C` (some centres unmarked) [CBD-Val-HS]: in series [4], the “presence of the Val-HS derivative in plasma (comparator cannabinoid derivatives)” value is “the only entity found in the plasma”.
In the case of `CCCCCc1cc(OC(=O)C(NC(=O)CCC(=O)O)C(C)C)c2c(c1)OC(C)(C)C1CCC(C)=CC21` (centres unmarked) [THC-Val-HS], the “presence of the Val-HS derivative in plasma (comparator cannabinoid derivatives)” value in series [4] is recorded as “not found in plasma”.

The record behind these values is patent publication US20240336587A1, “CANNABICHROMENE DERIVATIVES AND METHODS FOR MAKING AND USING THE SAME” (University of Mississippi, priority 2021, published 2024).
